Measured values from ChEMBL document CHEMBL4028801, “A multifactorial approach to hepatobiliary transporter assessment enables improved therapeutic compound development” (Toxicol Sci, 2013).

Experiments:
[1] = target: ATP-binding cassette sub-family C member 3 (Homo sapiens, UniProt O15438); experiment: Inhibition of human MRP3 overexpressed in Sf9 insect cell membrane vesicles assessed as uptake of [3H]-estradiol-17beta-D-glucuronide in presence of ATP and GSH measured after 10 mins by membrane vesicle transport assay; format: ADME, cell-based
[2] = Ratio of drug concentration at steady state in human at 200 mg, po QD after 24 hrs to IC50 for human BSEP overexpressed in Sf9 insect cells; format: ADME, organism-based; conditions: in vivo
[3] = target: ATP-binding cassette sub-family C member 2 (Homo sapiens, UniProt Q92887); experiment: Inhibition of human MRP2 overexpressed in Sf9 cell membrane vesicles assessed as uptake of [3H]-estradiol-17beta-D-glucuronide in presence of ATP and GSH measured after 20 mins by membrane vesicle transport assay
[4] = target: T1, ATP-binding cassette sub-family C member 4 (Homo sapiens, UniProt O15439); experiment: Inhibition of human MRP4 overexpressed in Sf9 cell membrane vesicles assessed as uptake of [3H]-estradiol-17beta-D-glucuronide in presence of ATP and GSH measured after 20 mins by membrane vesicle transport assay; format: ADME, cell-based
T1 sequence (O15439 whole entry): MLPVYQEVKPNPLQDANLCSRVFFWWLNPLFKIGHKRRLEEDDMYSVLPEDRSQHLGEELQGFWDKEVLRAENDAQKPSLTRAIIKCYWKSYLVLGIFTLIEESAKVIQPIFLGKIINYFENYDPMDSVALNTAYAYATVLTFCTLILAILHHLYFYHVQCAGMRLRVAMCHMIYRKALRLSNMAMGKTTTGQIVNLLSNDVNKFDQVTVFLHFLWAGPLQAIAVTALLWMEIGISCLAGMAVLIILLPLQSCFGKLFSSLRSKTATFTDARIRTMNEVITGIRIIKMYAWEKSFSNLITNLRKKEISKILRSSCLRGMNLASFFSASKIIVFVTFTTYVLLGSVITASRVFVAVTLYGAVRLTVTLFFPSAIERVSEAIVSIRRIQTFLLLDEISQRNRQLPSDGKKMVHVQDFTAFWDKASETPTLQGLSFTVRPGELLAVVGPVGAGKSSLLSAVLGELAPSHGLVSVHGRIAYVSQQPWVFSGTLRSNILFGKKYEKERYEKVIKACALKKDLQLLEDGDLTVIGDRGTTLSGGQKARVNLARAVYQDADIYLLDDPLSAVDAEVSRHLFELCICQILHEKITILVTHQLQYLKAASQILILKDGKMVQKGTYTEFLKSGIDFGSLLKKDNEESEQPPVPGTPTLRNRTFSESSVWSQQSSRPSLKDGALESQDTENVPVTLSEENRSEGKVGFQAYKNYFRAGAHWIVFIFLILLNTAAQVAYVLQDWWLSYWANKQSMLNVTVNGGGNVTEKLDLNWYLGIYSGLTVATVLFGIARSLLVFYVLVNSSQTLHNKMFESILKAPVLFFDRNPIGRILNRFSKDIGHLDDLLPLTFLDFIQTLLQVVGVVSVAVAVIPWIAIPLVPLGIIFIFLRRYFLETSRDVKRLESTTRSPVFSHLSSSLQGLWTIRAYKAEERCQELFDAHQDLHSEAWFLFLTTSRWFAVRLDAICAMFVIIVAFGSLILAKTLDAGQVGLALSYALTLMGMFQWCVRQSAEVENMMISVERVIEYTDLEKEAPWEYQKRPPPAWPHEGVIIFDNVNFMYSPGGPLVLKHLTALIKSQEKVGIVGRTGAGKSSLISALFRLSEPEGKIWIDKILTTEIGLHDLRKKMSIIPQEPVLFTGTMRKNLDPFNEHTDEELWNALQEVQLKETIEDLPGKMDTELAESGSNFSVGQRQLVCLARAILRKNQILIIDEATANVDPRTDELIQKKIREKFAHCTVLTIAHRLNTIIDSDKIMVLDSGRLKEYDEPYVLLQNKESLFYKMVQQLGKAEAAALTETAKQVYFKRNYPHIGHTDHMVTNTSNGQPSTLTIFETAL

[5] = Drug concentration at steady state in human at 200 mg, po QD after 24 hrs; format: ADME, organism-based; conditions: in vivo, read-out: Css
[6] = Ratio of drug concentration at steady state in human at 200 mg, po QD after 24 hrs to IC50 for human MRP4 overexpressed in Sf9 insect cells; format: ADME, organism-based; conditions: in vivo
[7] = AUC in human at 200 mg, po QD after 24 hrs; format: ADME, organism-based; design: time < 24 hr, dose 200 mg, route oral; conditions: in vivo
[8] = Drug concentration at steady state in human at 200 to 600 mg, po QD after 24 hrs; format: ADME, organism-based; conditions: in vivo, read-out: Css
[9] = AUC in human at 200 to 600 mg, po QD after 24 hrs; format: ADME, organism-based; conditions: in vivo
[10] = Ratio of drug concentration at steady state in human at 200 to 600 mg, po QD after 24 hrs to IC50 for human MRP4 overexpressed in Sf9 insect cells; format: ADME, organism-based; conditions: in vivo
[11] = Ratio of drug concentration at steady state in human at 200 to 600 mg, po QD after 24 hrs to IC50 for human MRP3 overexpressed in Sf9 insect cells; format: ADME, organism-based; conditions: in vivo
[12] = Ratio of drug concentration at steady state in human at 200 to 600 mg, po QD after 24 hrs to IC50 for human BSEP overexpressed in Sf9 insect cells; format: ADME, organism-based; conditions: in vivo
Bile salt export pump = Bile salt export pump (Homo sapiens, UniProt O95342); experiment: Inhibition of human BSEP overexpressed in Sf9 cell membrane vesicles assessed as uptake of [3H]-taurocholate in presence of ATP measured after 15 to 20 mins by membrane vesicle transport assay; format: ADME, cell-based
[13] = Ratio of drug concentration at steady state in human at 80 to 600 mg, po QD after 24 hrs to IC50 for human MRP4 overexpressed in Sf9 insect cells; format: ADME, organism-based; conditions: in vivo
[14] = Ratio of drug concentration at steady state in human at 80 to 600 mg, po QD after 24 hrs to IC50 for human BSEP overexpressed in Sf9 insect cells; format: ADME, organism-based; conditions: in vivo
[15] = AUC in human at 80 to 600 mg, po QD after 24 hrs; format: ADME, organism-based; conditions: in vivo
[16] = Drug concentration at steady state in human at 80 to 600 mg, po QD after 24 hrs; format: ADME, organism-based; conditions: in vivo, read-out: Css
[17] = Ratio of drug concentration at steady state in human at 400 to 800 mg, po QD used as formulation with ritonavir measured after 24 hrs to IC50 for human MRP3 overexpressed in Sf9 insect cells; format: ADME, organism-based; conditions: in vivo
[18] = AUC in human at 400 to 800 mg, po QD used as formulation with ritonavir measured after 24 hrs; format: ADME, organism-based; conditions: in vivo
[19] = Ratio of drug concentration at steady state in human at 400 to 800 mg, po QD used as formulation with ritonavir measured after 24 hrs to IC50 for human MRP4 overexpressed in Sf9 insect cells; format: ADME, organism-based; conditions: in vivo
[20] = Drug concentration at steady state in human at 400 to 800 mg, po QD used as formulation with ritonavir measured after 24 hrs; format: ADME, organism-based; conditions: in vivo, read-out: Css
[21] = Ratio of drug concentration at steady state in human at 400 to 800 mg, po QD used as formulation with ritonavir measured after 24 hrs to IC50 for human BSEP overexpressed in Sf9 insect cells; format: ADME, organism-based; conditions: in vivo
[22] = Ratio of drug concentration at steady state in human at 125 to 500 mg, po QID after 6 hrs to IC50 for human BSEP overexpressed in Sf9 insect cells; format: ADME, organism-based; conditions: in vivo
[23] = Drug concentration at steady state in human at 125 to 500 mg, po QID after 6 hrs; format: ADME, organism-based; conditions: in vivo, read-out: Css
[24] = AUC in human at 125 to 500 mg, po QID after 6 hrs; format: ADME, organism-based; conditions: in vivo

Chain of ATP-binding cassette sub-family C member 2 (Q92887 whole entry): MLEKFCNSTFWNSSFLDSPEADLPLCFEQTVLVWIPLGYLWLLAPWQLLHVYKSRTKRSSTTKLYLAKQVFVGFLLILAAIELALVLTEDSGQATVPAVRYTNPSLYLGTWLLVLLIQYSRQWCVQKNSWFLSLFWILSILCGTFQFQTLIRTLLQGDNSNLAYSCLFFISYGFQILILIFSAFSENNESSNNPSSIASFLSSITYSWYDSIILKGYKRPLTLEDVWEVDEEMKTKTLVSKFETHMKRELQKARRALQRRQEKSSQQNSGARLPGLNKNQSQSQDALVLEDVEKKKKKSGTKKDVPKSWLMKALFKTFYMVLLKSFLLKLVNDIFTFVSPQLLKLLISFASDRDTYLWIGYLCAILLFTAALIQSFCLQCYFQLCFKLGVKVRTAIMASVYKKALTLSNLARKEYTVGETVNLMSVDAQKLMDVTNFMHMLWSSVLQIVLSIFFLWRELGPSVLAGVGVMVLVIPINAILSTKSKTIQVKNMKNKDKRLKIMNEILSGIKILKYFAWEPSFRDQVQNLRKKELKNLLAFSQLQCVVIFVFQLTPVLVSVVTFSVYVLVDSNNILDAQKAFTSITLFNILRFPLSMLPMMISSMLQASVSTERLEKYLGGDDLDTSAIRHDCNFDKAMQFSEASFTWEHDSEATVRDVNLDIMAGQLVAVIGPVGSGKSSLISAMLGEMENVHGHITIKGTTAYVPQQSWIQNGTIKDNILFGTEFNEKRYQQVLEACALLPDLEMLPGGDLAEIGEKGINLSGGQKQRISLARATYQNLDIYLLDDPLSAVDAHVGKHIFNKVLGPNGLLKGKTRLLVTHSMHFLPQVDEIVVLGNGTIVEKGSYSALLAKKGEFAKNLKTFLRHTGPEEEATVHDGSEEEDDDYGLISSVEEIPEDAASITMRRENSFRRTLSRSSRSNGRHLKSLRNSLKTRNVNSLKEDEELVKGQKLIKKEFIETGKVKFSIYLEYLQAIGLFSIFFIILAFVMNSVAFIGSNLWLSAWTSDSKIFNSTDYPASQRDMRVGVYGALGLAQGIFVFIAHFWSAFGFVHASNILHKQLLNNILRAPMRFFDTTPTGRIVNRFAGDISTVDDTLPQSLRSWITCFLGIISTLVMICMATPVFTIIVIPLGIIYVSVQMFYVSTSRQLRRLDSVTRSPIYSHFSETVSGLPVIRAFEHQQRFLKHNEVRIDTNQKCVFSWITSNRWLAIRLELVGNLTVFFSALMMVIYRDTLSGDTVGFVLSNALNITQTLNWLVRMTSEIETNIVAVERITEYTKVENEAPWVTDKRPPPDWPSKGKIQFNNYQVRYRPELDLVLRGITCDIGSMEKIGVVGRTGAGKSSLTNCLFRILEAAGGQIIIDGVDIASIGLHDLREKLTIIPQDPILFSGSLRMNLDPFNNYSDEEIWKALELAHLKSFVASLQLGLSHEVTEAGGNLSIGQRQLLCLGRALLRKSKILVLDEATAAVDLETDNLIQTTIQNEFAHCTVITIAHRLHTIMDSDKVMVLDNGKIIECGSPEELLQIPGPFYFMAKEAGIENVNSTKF
Chain of ATP-binding cassette sub-family C member 3 (O15438 whole entry): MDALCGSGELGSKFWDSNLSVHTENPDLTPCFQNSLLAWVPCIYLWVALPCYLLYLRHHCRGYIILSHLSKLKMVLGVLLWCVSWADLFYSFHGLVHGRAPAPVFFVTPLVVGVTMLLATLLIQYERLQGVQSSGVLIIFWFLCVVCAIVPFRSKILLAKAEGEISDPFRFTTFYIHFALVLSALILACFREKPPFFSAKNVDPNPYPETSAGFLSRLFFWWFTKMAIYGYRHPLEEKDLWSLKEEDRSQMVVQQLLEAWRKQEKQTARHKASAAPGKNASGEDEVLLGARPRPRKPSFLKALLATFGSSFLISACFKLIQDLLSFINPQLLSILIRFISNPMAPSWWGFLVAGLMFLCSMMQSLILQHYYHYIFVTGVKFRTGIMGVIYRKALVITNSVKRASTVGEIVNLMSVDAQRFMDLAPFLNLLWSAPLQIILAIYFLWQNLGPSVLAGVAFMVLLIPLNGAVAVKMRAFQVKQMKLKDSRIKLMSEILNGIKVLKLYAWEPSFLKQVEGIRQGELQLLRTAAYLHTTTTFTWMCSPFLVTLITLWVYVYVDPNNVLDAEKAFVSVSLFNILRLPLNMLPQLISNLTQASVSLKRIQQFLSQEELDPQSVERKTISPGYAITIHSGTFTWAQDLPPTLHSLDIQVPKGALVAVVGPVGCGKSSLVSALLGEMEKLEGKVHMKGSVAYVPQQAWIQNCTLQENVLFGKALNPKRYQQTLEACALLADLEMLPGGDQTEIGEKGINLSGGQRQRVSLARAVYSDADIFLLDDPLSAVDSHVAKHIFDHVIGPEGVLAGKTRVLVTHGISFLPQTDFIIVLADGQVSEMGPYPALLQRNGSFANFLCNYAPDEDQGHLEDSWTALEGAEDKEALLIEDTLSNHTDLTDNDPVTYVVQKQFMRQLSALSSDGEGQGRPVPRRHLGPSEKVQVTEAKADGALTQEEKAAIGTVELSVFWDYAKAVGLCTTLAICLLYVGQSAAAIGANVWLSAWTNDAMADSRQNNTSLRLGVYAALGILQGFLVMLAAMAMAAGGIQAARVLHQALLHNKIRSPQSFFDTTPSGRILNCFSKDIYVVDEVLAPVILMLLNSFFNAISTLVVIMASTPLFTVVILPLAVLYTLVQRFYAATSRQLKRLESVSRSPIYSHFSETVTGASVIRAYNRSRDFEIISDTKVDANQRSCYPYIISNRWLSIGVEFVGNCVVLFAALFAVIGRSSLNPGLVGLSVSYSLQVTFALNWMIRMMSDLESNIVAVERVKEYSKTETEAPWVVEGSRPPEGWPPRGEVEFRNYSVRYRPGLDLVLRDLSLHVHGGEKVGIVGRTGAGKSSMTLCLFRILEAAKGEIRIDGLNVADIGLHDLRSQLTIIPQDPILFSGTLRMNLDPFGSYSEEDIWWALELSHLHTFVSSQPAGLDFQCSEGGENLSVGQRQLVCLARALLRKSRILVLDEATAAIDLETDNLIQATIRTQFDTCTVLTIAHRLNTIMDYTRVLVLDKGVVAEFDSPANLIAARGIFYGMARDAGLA
Chain of Bile salt export pump (O95342 whole entry): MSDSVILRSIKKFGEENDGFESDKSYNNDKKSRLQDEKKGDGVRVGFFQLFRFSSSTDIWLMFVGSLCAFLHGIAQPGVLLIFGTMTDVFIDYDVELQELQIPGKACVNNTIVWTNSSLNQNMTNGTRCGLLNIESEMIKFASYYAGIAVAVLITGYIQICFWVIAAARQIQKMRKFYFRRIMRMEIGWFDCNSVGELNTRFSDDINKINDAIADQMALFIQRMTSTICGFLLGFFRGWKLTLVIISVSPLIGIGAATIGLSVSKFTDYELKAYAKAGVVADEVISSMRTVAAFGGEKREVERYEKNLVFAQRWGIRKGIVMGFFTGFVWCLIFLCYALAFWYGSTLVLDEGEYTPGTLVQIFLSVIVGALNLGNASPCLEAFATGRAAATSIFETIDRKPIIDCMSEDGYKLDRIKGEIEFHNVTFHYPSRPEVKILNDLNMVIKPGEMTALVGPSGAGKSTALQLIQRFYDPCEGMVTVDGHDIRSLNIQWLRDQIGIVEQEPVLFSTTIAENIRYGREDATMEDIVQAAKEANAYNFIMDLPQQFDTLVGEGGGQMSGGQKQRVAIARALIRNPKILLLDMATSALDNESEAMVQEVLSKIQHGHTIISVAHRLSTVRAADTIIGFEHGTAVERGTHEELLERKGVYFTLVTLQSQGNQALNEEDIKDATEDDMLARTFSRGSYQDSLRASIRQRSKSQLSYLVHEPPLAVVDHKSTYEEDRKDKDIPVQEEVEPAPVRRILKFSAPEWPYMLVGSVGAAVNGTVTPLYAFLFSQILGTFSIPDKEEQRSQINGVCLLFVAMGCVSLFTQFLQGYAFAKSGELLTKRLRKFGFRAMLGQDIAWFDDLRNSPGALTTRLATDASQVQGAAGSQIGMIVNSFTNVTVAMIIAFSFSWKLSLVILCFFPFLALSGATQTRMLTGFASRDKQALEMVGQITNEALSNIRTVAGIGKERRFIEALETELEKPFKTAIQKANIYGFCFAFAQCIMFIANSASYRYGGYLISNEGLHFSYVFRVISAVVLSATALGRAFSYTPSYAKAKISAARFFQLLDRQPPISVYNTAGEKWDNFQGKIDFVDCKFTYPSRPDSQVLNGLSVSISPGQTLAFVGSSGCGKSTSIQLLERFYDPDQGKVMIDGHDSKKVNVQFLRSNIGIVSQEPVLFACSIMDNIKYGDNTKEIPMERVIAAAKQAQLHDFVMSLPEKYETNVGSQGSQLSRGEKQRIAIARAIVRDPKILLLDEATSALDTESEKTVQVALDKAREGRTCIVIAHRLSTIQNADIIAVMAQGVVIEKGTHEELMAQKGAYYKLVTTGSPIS

In the case of `CC(=O)N1CCN(c2ccc(OCC3COC(Cn4ccnc4)(c4ccc(Cl)cc4Cl)O3)cc2)CC1` (stereo not drawn) [KETOCONAZOLE], the IC50 [1] is reported as over 133 µM, the Ratio [2] is reported as 0.381 and the IC50 [3] is reported as over 133 µM. It also gave an IC50 [4] of 69 µM, a concentration at 24 h [5] of 1.29 µM and a Ratio [6] of 0.019. The AUC at 24 h [7] was 31.1 µM·h.

`Cc1c(C)c2c(c(C)c1O)CCC(C)(COc1ccc(CC3SC(=O)NC3=O)cc1)O2` (stereo not drawn) [TROGLITAZONE] gave an IC50 [1] of 31 µM, a concentration at 24 h [8] of 0.939 µM and an IC50 [4] of 61 µM. The AUC at 24 h [9] was 22.5 µM·h, the Ratio [10] was 0.015 and the Ratio [11] was 0.03. The Ratio [12] was 0.313 and the IC50 (Bile salt export pump) was 3 µM.

For `COc1ccc(/C=C/C(=O)Nc2ccccc2C(=O)O)cc1OC`, the IC50 [1] was over 133 µM, the Ratio [13] was 11.849 and the IC50 [3] was over 133 µM. It also gave an IC50 [4] of 1 µM, a Ratio [14] of 0.286 and an AUC at 24 h [15] of 284 µM·h. It also gave a concentration at 24 h [16] of 11.8 µM and an IC50 (Bile salt export pump) of 41.5 µM.

Molecule `Cc1cccc(C)c1OCC(=O)N[C@@H](Cc1ccccc1)[C@@H](O)C[C@H](Cc1ccccc1)NC(=O)[C@H](C(C)C)N1CCCNC1=O` [LOPINAVIR] has an IC50 [1] of 21 µM, an IC50 [3] of over 133 µM and a Ratio [17] of 0.314. For the same molecule, the IC50 [4] was 47 µM, the AUC at 24 h [18] was 158 µM·h and the Ratio [19] was 0.14. It also gave a concentration at 24 h [20] of 6.6 µM and a Ratio [21] of 0.381.

Work on `Cc1onc(-c2c(Cl)cccc2Cl)c1C(=O)N[C@@H]1C(=O)N2[C@@H]1SC(C)(C)[C@@H]2C(=O)O` [DICLOXACILLIN] yielded an IC50 [1] of over 133 µM, a Ratio [22] of 0.498 and a concentration at 6 h [23] of 28.1 µM. For the same molecule, the IC50 [3] was over 133 µM, the IC50 [4] was over 133 µM and the AUC at 6 h [24] was 168 µM·h. The IC50 (Bile salt export pump) was 56.4 µM.
